Patent US20240376120A1, “CAMPTOTHECIN COMPOUND, PREPARATION METHOD THEREFOR AND USE THEREOF” (priority 2021, published 2024)
Counter-ions that a name gives are not always drawn. Like-named read-outs stand apart in the source and are kept apart here.

Tests used:
[1] = test system: MCF-7 cells (human breast cancer cells); assay: MCF-7 cell proliferation inhibitory assay (CellTiter-Glo); type: cell-based
Description: • 1). […] Resuspend an appropriate amount of cell suspension to 4000 cells/100 μL according to the count, mixed well and then put the corresponding number of cells into a 96-well plate by pipette. • 3). Each hole of the edge was sealed with 100 μL DPBS and put into an incubator for culture. • 4). Day 1 drug addition: Prepare the storage solution of the compound to be tested 1 hour in advance. 24 h after plating, the culture medium was gradiently diluted to a concentration twice the final concentration of each group. Take out the plated cells from the incubator and add 100 μL of the corresponding 2-fold concentration medium to each well by pipette.
Day 1 detected: Take out the plate to be tested and an appropriate amount of CTG in advance and rewarm it at room temperature in the dark. 50 μL of CTG was added to each well at 24 h. Shake with the oscillator for 5 minutes, and after balancing in the dark for 5 minutes, detect the luminescence value with a microplate reader; The mixture was shaken for 5 min, and after equilibration in the dark for 5 min, the luminescence value was detected with ELISA. • 6). Day 4 detection: Take an appropriate amount of CTG 1 h in advance and rewarm it at room temperature in the dark. At the same time, take out the plate to be tested from the incubator and leave it to equilibrate at room temperature for 30 minutes; 72 h after adding the drug, 100 μL of culture medium was sucked out with pipette carefully from each cell well, and 50 μL of CTG was added. The mixture was shaken for 5 min, and after equilibration in the dark for 5 min, the luminescence value was detected with ELISA analyzer. • 7). Data analysis and processed.
Collect data and convert it into survival rate: Inhibition rate (%)=(100−(OD value of compound-OD value on the first day)/(OD value of control well-OD value on the first day))×100%
(§1) Input the compound into graphpad prism to obtain the corresponding IC50 value.

[2] = test system: MDA-MB-231 cells (human breast cancer cells); assay: MDA-MB-231 cell proliferation inhibitory assay (CellTiter-Glo); type: cell-based
Description: (§2) • 1). […] Resuspend an appropriate amount of cell suspension to 3000 cells/100 μL according to the count, mixed well and then put the corresponding number of cells into a 96-well plate by pipette. • 3). Each hole of the edge was sealed with 100 μL DPBS and put into an incubator for culture. • 4). Day 1 drug addition: Prepare the storage solution of the compound to be tested 1 hour in advance. 24 h after plating, the culture medium was gradiently diluted to a concentration twice the final concentration of each group. Take out the plated cells from the incubator and add 100 μL of the corresponding 2-fold concentration medium to each well by pipette. • 5). Day 1 detected: Take out an appropriate amount of CTG 1 h in advance and the plate was allowed to equilibrate at room temperature for 30 min. 100 μL of CTG was added to each well and shaken for 5 mins, and then standed in the dark for 5 mins, the luminescence value was detected by ELISA. • 6). Day 4 detection: Take an appropriate amount of CTG 1 h in advance and rewarm it at room temperature in the dark. At the same time, take out the plate to be tested from the incubator and leave it to equilibrate at room temperature for 30 minutes; 72 h after adding the drug, 100 μL of culture medium was sucked out with pipette carefully from each cell well, and 100 μL of CTG was added. The mixture was shaken for 5 min, and after equilibration in the dark for 5 min, the luminescence value was detected with ELISA. • 7). Analyze data and write detailed experimental records.
as §1

[3] = test system: MDA-MB-435s cells (human melanoma cells); assay: MDA-MB-435s cell proliferation inhibitory assay (CellTiter-Glo); type: cell-based
Description: as §2
Collect data and convert it into survival rate: Inhibition rate (%)=(100−(OD value of compound−OD value on the first day)/(OD value of control well-OD value on the first day))×100%
as §1

[4] = test system: Caco-2 cells (human colorectal adenocarcinoma cells); assay: Caco-2 cell membrane permeability assay; conditions: Caco-2 monolayer, apical to basolateral, 100 μg/mL, 180 min
Description: (§3) Day 0 plated: After digesting the target cells in the logarithmic growth phase, make a single cell suspension and count. • 2). Took out the corresponding number of transwell chambers and placed them in a 24-well plate, added 200 μL PBS to the upper chamber, incubated for 10 mins, and removed the PBS from the upper chamber by pipette. • 3). According to the count, took an appropriate amount of cell suspension and resuspended it to 5000 cells/200 μL, mixed well and added it to the upper chamber of the transwell, and added 600 μL of complete culture medium to the lower chamber. • 4). medium exchanged on DAY1: The upper chamber and the lower chamber were exchanged with complete culture medium containing 0.1 mg/mL ascorbic acid for 9 days continuously, and the resistance value of membrane expansion was measured. […] Collected the liquid in the upper chamber and the lower chamber for detection. • 7). Calculated Papp according to the formula “Papp=dQ/(dt×A×C0)”. dQ/dt was the transport amount of drugs per unit time, which was the slope of the linear regression of cumulative drug release amount Q versus time t. A was the bottom area of the Transwell orifice plate membrane, and the bottom area was 0.33 cm^2 of 24-well plate in this experiment. Co was the initial concentration of drugs in the upper chamber (μg mL-1).

[5] = Caco-2 cell membrane permeability assay; conditions: human, Caco-2
Description: as §3

in vitro = conditions: human, Caco-2
Description: as §3

[6] = test system: Caco-2 cells (human colorectal adenocarcinoma cells)
Description: as §3

[7] = Homo sapiens, MCF7, 72 h, read-out: Proliferation inhibition IC50
[8] = Homo sapiens, MDA-MB-231, 72 h, read-out: Proliferation inhibition IC50
[9] = Homo sapiens, MDA-MB-435S, 72 h, read-out: Proliferation inhibition IC50

Row | SMILES | IC50 [1, 7] [nM] | IC50 [2, 8] [nM] | IC50 [3, 9] [nM] | Papp A→B at 180 min, 100 μg/mL [5] [×10⁻⁶ cm/s] | Papp A→B at 180 min, 100 μg/mL (in vitro) [×10⁻⁶ cm/s] | Permeability compared with reference compounds (in words) [6] | further results
1 | CCc1c2c(nc3ccc(O)cc13)-c1cc3c(c(=O)n1C2)COC(=O)[C@]3(O)CC [SN38, reference compound] | – | – | – | – | – | – | IC50 ([1]; MCF-7 cells, 72 h after adding the drug, Table 1, read-out: Proliferation inhibition IC50): 22.5 nM; IC50 ([2]; MDA-MB-231 cells, 72 h after adding the drug, Table 2, read-out: Proliferation inhibition IC50): 124 nM; IC50 ([3]; MDA-MB-435s cells, 72 h after adding the drug, Table 3, read-out: Proliferation inhibition IC50): 6.89 nM; Permeability Coefficient (Papp 10^−6 cm/s) A→B [4]: 46.8 10^−6 cm/s
2 | CC[C@@]1(O)C(=O)OCc2c1cc1n(c2=O)Cc2c-1nc1cc(F)c(C)c3c1c2[C@@H](N)CC3 [Compound B, Exatecan, reference compound] | 5.5 | 30.9 | 2.52 | 68.6 | – | – | –
3 | CC[C@@]1(O)C(=O)OCc2c1cc1n(c2=O)Cc2c-1nc1cc(F)c(C)cc1c2[C@@H](C)N [Example 1] | 5.2 | 8.2 | 0.75 | – | 100 | obvious advantages over SN38 and exatecan | IC50 ([1]; Homo sapiens, MCF7, read-out: MCF-7 Proliferation inhibition IC50): 5.2 nM; IC50 ([2]; Homo sapiens, MDA-MB-231, read-out: MDA-MB-231 Proliferation inhibition IC50): 8.2 nM; IC50 ([3]; Homo sapiens, MDA-MB-435S, read-out: MDA-MB-435s Proliferation inhibition IC50): 0.75 nM
4 | COCCc1ccc(OCC(O)CNC(C)C)cc1 (centres unmarked) [Metoprolol Tartrate] | – | – | – | 193 | – | – | –
5 | CC[C@@]1(O)C(=O)OCc2c1cc1n(c2=O)Cc2c-1nc1cc(F)c(C)c3c1c2[C@@H](NC(=O)CO)CC3 [Dxd, reference compound] | 20.3 | 101 | 5.12 | 42 | – | – | –
6 | CC[C@@]1(O)C(=O)OCc2c1cc1n(c2=O)Cc2c-1nc1cc(F)c(C)cc1c2[C@H](C)O [Example 12c] | 3.5 | 6.6 | 0.7 | – | 96 | obvious advantages over SN38 and exatecan | –
